Experimental data taken from patent US20190210996A1, “NOVEL COMPOUNDS” (GLAXOSMITHKLINE INTELLECTUAL PROPERTY DEVELOPMENT LIMITED, priority 2016, published 2019).

Assays:
Format in all cases: cell-based
LATS1 = target: T1, LATS1 (Homo sapiens, UniProt O95835); test: Expression proteomics in THP-1 cells: LATS1 protein level; conditions: LATS1, THP-1 cells
T1 construct: endogenous in cells; host or cells: THP-1
T1 sequence (O95835 1-1130): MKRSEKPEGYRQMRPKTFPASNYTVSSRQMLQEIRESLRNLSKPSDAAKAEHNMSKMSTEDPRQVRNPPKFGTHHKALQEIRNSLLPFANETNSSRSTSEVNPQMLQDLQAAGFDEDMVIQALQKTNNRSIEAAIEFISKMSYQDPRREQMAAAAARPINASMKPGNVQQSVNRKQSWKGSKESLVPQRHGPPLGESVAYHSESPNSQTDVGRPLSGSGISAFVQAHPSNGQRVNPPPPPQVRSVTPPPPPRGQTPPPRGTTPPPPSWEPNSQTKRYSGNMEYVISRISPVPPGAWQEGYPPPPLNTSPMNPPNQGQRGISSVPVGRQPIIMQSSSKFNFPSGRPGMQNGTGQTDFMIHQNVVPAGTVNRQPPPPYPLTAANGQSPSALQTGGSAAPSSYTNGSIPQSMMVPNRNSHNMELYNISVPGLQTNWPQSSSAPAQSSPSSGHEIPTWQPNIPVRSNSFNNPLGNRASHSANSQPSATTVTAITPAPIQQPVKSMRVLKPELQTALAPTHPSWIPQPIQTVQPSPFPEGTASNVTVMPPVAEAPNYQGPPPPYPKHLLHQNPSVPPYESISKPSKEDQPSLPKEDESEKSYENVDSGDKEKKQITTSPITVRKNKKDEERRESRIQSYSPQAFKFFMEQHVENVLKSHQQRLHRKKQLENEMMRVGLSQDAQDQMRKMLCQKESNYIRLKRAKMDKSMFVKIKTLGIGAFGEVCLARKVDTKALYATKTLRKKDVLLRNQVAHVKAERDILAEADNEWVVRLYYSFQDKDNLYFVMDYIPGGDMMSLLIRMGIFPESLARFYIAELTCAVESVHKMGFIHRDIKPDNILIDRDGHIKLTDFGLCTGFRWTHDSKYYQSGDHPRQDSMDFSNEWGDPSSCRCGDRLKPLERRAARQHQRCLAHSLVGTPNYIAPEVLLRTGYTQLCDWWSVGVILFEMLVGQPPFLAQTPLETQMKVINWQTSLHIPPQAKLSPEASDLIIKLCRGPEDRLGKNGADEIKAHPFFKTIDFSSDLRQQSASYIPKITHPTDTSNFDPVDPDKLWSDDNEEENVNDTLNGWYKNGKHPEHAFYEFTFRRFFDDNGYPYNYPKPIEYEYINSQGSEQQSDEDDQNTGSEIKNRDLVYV
Method: (§1) THP-1 cells were seeded at a concentration of 3×10^6 cells in T175 flasks with 60 mL growth medium (RPMI1640+10% FBS). […] of a 10× compound solution prepared in growth medium (DMSO), CEREBLON_PROTAC) was added and the cells were treated for the indicated time points (6 or 24 h) at 37° C., 5% CO2. For harvesting the cells were collected into falcon tubes on ice, centrifuged and washed twice in cold PBS (Life technologies). After the last washing step the supernatant was removed and the pellets were snap-frozen in liquid N2 and stored at −80° C. and lysed in 2% SDS for 3 min at 95° C. in a thermomixer (Thermo Fisher Scientific), followed by digestion of DNA with Benzonase at 37° C. for 1.5 h. Lysate was cleared by centrifugation an protein concentration in supernatant was determined by BCA assay.
(§2) Leukemia 25, 89-100 (2011).
(§3) Samples were dried in vacuo and resuspended in 0.05% trifluoroacetic acid in water. Of the sample, 50% was injected into an Ultimate3000 nanoRLSC (Dionex, Sunnyvale, Calif.) coupled to a Q Exactive HF (Thermo Fisher Scientific). Peptides were trapped on a 5 mm×300 μm C18 column (Pepmap100, 5 μm, 300 Å, Thermo Fisher Scientific) in water with 0.05% TFA at 60° C. Separation was performed on custom 50 cm×[…] (ID) reversed-phase columns (Reprosil) at 55° C. Gradient elution was performed from 2% acetonitrile to 40% acetonitrile in 0.1% formic acid and 3.5% DMSO over 2 hours. Samples were online injected into Q-Exactive HF mass spectrometers operating with a data-dependent top 10 method. MS spectra were acquired by using 60.000 resolution and an ion target of 3×10^6. Higher energy collisional dissociation (HCD) scans were performed with 35% NCE at 30.000 resolution (at m/z 200), and the ion target settings was set to 2×10^5 so as to avoid coalescence (Werner, T. et al. Ion Coalescence of Neutron Encoded TMT 10-Plex Reporter Ions. Anal. Chem. 86, 3594-3601 (2014).
(§4) The first search was performed with 30 parts per million mass tolerance for peptide precursors and 30 mD (HCD) mass tolerance for fragment ions followed by a final search using recalibrated data with a 10 parts per million mass tolerance for peptide precursors and 20 mD (HCD) mass tolerance for fragment ions. Carbamidomethylation of cysteine residues and TMT modification of lysine residues were set as fixed modifications and methionine oxidation, and N-terminal acetylation of proteins and TMT modification of peptide N-termini were set as variable modifications. […]
(§5) Nat Biotech 29, 255-265 (2011). this measure is referred to as ion area Savitski, M. M. et al. Delayed Fragmentation and Optimized Isolation Width Settings for Improvement of Protein Identification and Accuracy of Isobaric Mass Tag Quantification on Orbitrap-Type Mass Spectrometers. […]

PTK2B = target: T2, PTK2B (Homo sapiens, UniProt Q14289); test: Expression proteomics in THP-1 cells: PTK2B protein level
T2 construct: endogenous in cells; host or cells: THP-1
Method: as §1, §2, §3, §4, §5

PRKAA1 = target: T3, PRKAA1 (Homo sapiens, UniProt Q13131); test: Expression proteomics in THP-1 cells: PRKAA1 protein level; conditions: PRKAA1, THP-1 cells
T3 construct: endogenous in cells; host or cells: THP-1
Method: as §1, §2, §3, §4, §5

T3 sequence (Q13131 whole entry): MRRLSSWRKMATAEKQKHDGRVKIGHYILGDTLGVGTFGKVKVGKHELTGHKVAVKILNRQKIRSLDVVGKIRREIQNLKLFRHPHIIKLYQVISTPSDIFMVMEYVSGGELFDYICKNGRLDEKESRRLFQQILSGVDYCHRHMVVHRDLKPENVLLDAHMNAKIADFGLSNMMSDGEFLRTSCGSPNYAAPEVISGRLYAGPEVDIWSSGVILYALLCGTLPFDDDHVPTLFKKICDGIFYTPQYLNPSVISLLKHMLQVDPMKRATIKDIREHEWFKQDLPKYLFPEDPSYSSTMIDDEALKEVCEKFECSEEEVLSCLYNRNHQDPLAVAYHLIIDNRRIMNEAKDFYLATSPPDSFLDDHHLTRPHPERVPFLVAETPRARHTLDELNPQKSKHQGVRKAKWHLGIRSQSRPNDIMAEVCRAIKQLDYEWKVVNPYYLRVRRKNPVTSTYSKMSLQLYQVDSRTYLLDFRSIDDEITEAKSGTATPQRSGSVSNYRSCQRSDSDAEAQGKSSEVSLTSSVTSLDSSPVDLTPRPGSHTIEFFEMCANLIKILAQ
T3 sequence (Q9Y478 2-270 partner limits assumed): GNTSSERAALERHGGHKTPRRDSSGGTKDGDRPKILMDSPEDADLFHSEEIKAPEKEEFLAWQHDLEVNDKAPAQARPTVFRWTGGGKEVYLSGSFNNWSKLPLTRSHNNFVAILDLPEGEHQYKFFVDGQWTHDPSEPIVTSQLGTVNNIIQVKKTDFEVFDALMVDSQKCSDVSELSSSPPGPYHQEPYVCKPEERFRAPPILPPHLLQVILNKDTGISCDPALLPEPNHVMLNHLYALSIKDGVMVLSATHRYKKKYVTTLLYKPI
T3 sequence (P54619 whole entry partner): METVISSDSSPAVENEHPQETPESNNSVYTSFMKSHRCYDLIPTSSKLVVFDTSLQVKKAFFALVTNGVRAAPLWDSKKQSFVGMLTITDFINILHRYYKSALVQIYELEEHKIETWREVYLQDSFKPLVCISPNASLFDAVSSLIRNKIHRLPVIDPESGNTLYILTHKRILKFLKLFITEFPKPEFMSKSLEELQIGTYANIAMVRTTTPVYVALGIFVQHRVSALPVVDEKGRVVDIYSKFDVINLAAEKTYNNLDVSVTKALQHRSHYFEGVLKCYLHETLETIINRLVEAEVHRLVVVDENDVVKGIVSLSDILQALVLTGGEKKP
T2 sequence (Q14289 whole entry): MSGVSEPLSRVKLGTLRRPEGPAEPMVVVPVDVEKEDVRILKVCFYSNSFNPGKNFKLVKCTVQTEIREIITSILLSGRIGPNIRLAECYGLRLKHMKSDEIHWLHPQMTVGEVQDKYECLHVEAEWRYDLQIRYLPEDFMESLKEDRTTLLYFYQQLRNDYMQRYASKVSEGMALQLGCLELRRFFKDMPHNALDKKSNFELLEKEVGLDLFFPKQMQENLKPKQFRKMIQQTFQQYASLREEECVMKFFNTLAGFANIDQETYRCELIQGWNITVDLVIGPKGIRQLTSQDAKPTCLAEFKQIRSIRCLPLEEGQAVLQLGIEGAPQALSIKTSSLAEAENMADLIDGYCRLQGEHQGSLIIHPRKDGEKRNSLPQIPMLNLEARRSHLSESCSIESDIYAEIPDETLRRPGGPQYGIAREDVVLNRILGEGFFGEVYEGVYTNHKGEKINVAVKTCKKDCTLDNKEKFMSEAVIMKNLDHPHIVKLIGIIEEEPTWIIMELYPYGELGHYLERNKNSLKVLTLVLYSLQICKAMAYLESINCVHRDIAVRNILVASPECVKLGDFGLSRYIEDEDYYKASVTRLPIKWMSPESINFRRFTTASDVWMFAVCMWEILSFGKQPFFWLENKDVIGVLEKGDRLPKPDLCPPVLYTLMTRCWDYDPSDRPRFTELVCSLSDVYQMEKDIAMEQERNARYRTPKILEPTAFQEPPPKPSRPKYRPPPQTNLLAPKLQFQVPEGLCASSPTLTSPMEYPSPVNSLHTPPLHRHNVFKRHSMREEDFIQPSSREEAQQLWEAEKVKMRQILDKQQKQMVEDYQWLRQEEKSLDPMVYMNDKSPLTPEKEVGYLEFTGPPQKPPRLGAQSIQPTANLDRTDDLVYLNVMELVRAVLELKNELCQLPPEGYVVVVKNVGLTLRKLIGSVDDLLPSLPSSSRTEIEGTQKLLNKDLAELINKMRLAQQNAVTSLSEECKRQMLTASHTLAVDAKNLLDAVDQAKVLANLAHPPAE

- log2 rel. fc. to vehicle control (LATS1; 24 h 0.1 μM, n = 1): −1.02
- log2 rel. fc. to vehicle control (LATS1; 24 h 0.1 μM, n = 2): −1.01
- log2 rel. fc. to vehicle control (LATS1; 24 h 1 μM, n = 1): −1.46
- log2 rel. fc. to vehicle control (LATS1; 24 h 1 μM, n = 2): −1.55
- log2 rel. fc. to vehicle control (PTK2B; 24 h 0.1 μM, n = 1): −2.34
- log2 rel. fc. to vehicle control (PTK2B; 24 h 0.1 μM, n = 2): −2.50
- log2 rel. fc. to vehicle control (PTK2B; 24 h 1 μM, n = 1): −2.09
- log2 rel. fc. to vehicle control (PTK2B; 24 h 1 μM, n = 2): −2.18
- log2 rel. fc. to vehicle control (PRKAA1; 24 h 0.1 μM, n = 1): −0.38
- log2 rel. fc. to vehicle control (PRKAA1; 24 h 0.1 μM, n = 2): −0.74
- log2 rel. fc. to vehicle control (PRKAA1; 24 h 1 μM, n = 1): −1.06
- log2 rel. fc. to vehicle control (PRKAA1; 24 h 1 μM, n = 2): −1.35
Structure (SMILES): CNC(=O)c1ccccc1Nc1nc(Nc2ccc(N3CCN(CCOCCOCCOCCOCC(=O)Nc4cccc5c4CN(C4CCC(=O)NC4=O)C5=O)CC3)cc2)ncc1Cl.O=CO (stereo not drawn) [CEREBLON_PROTAC, 14-(4-(4-((5-Chloro-4-((2-(methylcarbamoyl)phenyl)amino)pyrimidin-2-yl)amino)phenyl)piperazin-1-yl)-N-(2-(2,6-dioxopiperidin-3-yl)-1-oxoisoindolin-4-yl)-3,6,9,12-tetraoxatetradecan-1-amide formate]
